The text below walks through data of patent publication US20190175467A1, “COMPOSITION FOR THE TREATMENT OF ACNE” (ROTTAPHARM LTD., priority 2015, published 2019).

In brackets after ≈: the same amount, converted by molar mass.

Experiment [1] deals with Propionibacterium acnes ATCC 11827. Put plainly: Determination of MIC and MBC, P. acnes. The experiment is classed as cell-based. To be noted: Cutibacterium acnes, ATCC11827; Propionibacterium acnes ATCC 11827, 2.6×10^4 cells per milliliter. The procedure:
(§1) A series of test tubes was prepared containing the culture broth inoculated with the test micro-organism and the substance to be tested was introduced at decreasing scalar concentrations. […] The test tubes in which the microbial population developed were then determined by observing visually the turbidity that is indicative of growth. Test tubes in which the substance is present at a sufficient concentration to inhibit growth remain clear. When the nature itself of the sample prevents visual reading or if it is wished to determine whether the lack of development is due to a microbiostatic or microbicidal action, transfers are made to appropriate agar media for confirmation. The concentration of sample at which growth of the micro-organisms is inhibited is considered to be the Minimum Inhibitory Concentration (MIC), while that at which viable micro-organisms are no longer present is considered to be the Minimum Bactericidal Concentration (MBC) In a further set of experiments we tested the antibacterial activity of Salix alba extract and 1,2-decanediol, a substance which is known to show antibacterial activity against P. acnes, alone and in combination according to the above-described method. The microbial strain used was Propionibacterium acnes ATCC 11827 titrated at a concentration of 2.6×10^4 cells per milliliter of medium.

The test system is the same in experiment [2]. To be noted: common knowledge; cited from earlier work.
The test system of experiment [3] is TNFalpha. In words: Anti-inflammatory activity: LPS-induced TNFalpha release in HaCat keratinocytes (ELISA). The experiment is classed as cell-based, human. The text has this:
(§2) The aim of the test was the evaluation of the anti-inflammatory activity of Salix alba extract, 1,2-decanediol and their combination by means of the study of TNFalpha, IL1alpha, IL8 synthesis modulation in a biological experimental model (keratinocyte cell culture HaCat).
(§3) In order to stimulate the inflammatory process in our experimental model, lipopolysaccharides (LPS) were selected. LPS are pro-inflammatory mediators secreted by bacteria, e.g. by P. acnes.
(§4) 1,2-decanediol (SMAL) was emulsified with corn oil (37° C.) in mechanical agitation and addition of culture medium, starting from the following ratio: 0.05 g emulsified with 100 μl corn oil in a final volume of culture medium of 1 ml (37° C.).
(§5) Salix alba extract (WMAL) was direct diluted in culture medium, starting from the following ratio: 0.05 g in 1 ml (37° C.); subsequent dilutions in culture medium (37° C.). […]
(§6) At the end of the monitored experimental period, cytokine levels were measured by means of ELISA assay. […]
(§7) Commercial ELISA kits were used for the determination of cytokine quantity.
(§8) The quantitative determination uses a calibration curve made-up of standard known and growing concentrations of standard cytokine. […]
(§9) In order to compare the two different work sessions, the obtained data were normalized in a 0-100% scale, in which CTR− is 0 and CTR+ is 100%; all the other data were calculated in this interval.

Experiment [4] relates to IL8. In words: Anti-inflammatory activity: LPS-induced IL8 release in HaCat keratinocytes (ELISA). Type of experiment: cell-based, human.
From the text: as §2, §3, §4, §5, §6, §7, §8, §9
(ELISA stands for enzyme-linked immunosorbent assay.)

Experiment [5] has as its system IL-6. In words: Anti-inflammatory activity: LPS-induced IL-6 release in HaCat keratinocytes (ELISA), as headed in Table 3. The experiment is classed as cell-based, human. To be noted: HaCat + LPS 10 ng/ml; CTR− is 0, CTR+ is 100%; WMAL 0.4%, SMAL 0.02%.
In experiment [6] the test system is IL1alpha. In words: Anti-inflammatory activity: LPS-induced IL1alpha release in HaCat keratinocytes (ELISA). The experiment is classed as cell-based, human.
From the text: as §2, §3, §4, §5, §6, §7, §8, §9

Experiment [7] concerns Staphylococcus aureus ATCC 25923. In words: Determination of MIC and MBC, Staphylococcus aureus. Type of experiment: cell-based. To be noted: for MBC: ATCC25923; for MIC: ATCC25923, read-out: MIC. The procedure: as §1, with “The” for “In a further set of experiments we tested the”, “these substances against Staphylococcus aureus acnes ATCC 25923” for “Salix alba extract”, “Staphylococcus epidermidis ATCC 12228 was tested” for “1,2-decanediol, a substance which is known to show antibacterial activity against P. acnes, alone and in combination”, “method.” for “method. The microbial strain used was Propionibacterium acnes ATCC 11827 titrated at a concentration of 2.6×10^4 cells per milliliter of medium.”

The test system of experiment [8] is Staphylococcus epidermidis ATCC 12228. In words: Determination of MIC and MBC, Staphylococcus epidermidis. The experiment is classed as cell-based. To be noted: for MBC: ATCC12228; for MIC: ATCC12228, read-out: MIC. The procedure: as §1, with “The” for “In a further set of experiments we tested the”, “these substances against Staphylococcus aureus acnes ATCC 25923” for “Salix alba extract”, “Staphylococcus epidermidis ATCC 12228 was tested” for “1,2-decanediol, a substance which is known to show antibacterial activity against P. acnes, alone and in combination”, “method.” for “method. The microbial strain used was Propionibacterium acnes ATCC 11827 titrated at a concentration of 2.6×10^4 cells per milliliter of medium.”

Setting [9] is: HaCat + LPS 10 ng/ml, CTR− is 0, CTR+ is 100%, WMAL 0.4%, SMAL 0.02%.

Consider `O=C(OOC(=O)c1ccccc1)c1ccccc1` [benzoyl peroxide], for which, in experiment [1], the MBC – broadly, the smallest concentration meeting the test's criterion for killing – amounted to 480 µg/mL and the MIC (as a rule, the least concentration at which growth counts as inhibited) was 480 µg/mL. In experiment [2], the “antibacterial activity against P. acnes, as known (in words)” value is on record as “strong antibacterial agent”.

On to `CCCCCCCCC(O)CO` (stereo not shown) [1,2-decanediol], for which, in experiment [1], the MBC came to 1250 µg/mL and the MIC turned out to be 620 µg/mL. The “effect on LPS-induced release of TNFalpha (in words)” value in experiment [3] (HaCat + LPS) was “significantly reduce”. Also, in experiment [3] (setting [9]), the “TNF-ALPHA, normalized data 0-100%” value was 18.45%. Besides, the “effect on LPS-induced release of IL8 (in words)” value in experiment [4] (HaCat + LPS) is recorded as “significantly reduce”. The “IL-8, normalized data 0-100%” value in experiment [4] (setting [9]) is recorded as 34.56%. The “IL-6, normalized data 0-100%” value in experiment [5] is on record as 61.69%. For the same compound, in experiment [6], the “effect on LPS-induced release of IL1alpha (in words)” value is listed as “significantly reduce”. Also, in experiment [2], the “antibacterial activity against P. acnes, as known (in words)” value is given as “effective”.

As for `Oc1ccc(C=Cc2cc(O)cc(O)c2)cc1` [Resveratrol], the MBC in experiment [7] and in experiment [8] was more than 100000 µg/mL each time. In addition, the MIC in experiment [7] was determined as 1000 µg/mL (≈ 4380 µM); in experiment [8] it was 250 µg/mL (≈ 1100 µM).

`C=C[C@@](C)(/C=C/c1ccc(O)cc1)CCC=C(C)C` [Bakuchiol]: in experiment [7], the minimal bactericidal concentration (MBC) came to 100 µg/mL (≈ 390 µM) and the MIC was determined as 6.25 µg/mL (≈ 24.4 µM). For the same compound, in experiment [8], the MBC came out at 100 µg/mL (≈ 390 µM) and the MIC was determined as 6.25 µg/mL (≈ 24.4 µM).

Regarding `CCCCCCCCCCCC(=O)O` [Lauric Acid, Lauric acid], in experiment [8], the MBC was determined as 1000 µg/mL (≈ 4990 µM) and the MIC came out at 500 µg/mL (≈ 2500 µM).
